# What was measured:
# [1] = CRE method A: lactone/lactam formation, T3P + DIPEA, internal nucleophile (pyridine/amine) cascade; settings: the molecule shown is the open-chain precursor, CHCl3, 50.0 mM, 22.0 °C
# [2] = CRE method C: cyclic carbamate/urea formation with triphosgene + Et3N; settings: the molecule shown is the open-chain precursor, CH2Cl2, 100.0 mM, 22.0 °C
# [3] = CRE method E: cyclic oxalate-type (1,2-dicarbonyl) formation with oxalyl chloride + Et3N; settings: the molecule shown is the open-chain precursor, CH2Cl2, 50.0 mM, 22.0 °C
# [4] = CRE method F: cyclic sulfite/sulfamidite formation with SOCl2 + DMAP; settings: the molecule shown is the open-chain precursor, CH2Cl2, 50.0 mM, 22.0 °C, 18.0 h
# [5] = CRE method B: lactone/thiolactone/lactam formation, EDC.HCl + HOBt + DIPEA; settings: DMF, 100.0 mM, 22.0 °C
smiles,measurement,setting,value
CN(CCCN)CCCC(=O)O [S104-derived amino acid -> 78 (2 steps)],"ring closure, isolated yield",[1]; 9-membered ring,65%
CN(C(=O)Cl)c1ccccc1-c1cccc(CC(O)c2ccccc2)n1 (stereo not shown) [S126 -> 85 (NMR yield)],"ring closure, isolated yield","[2]; 10-membered ring, 18.0 h",34%
CNCCCN(C)CCCN(C)C(=O)C(=O)Cl [34 -> 98],"ring closure, isolated yield","[3]; 11-membered ring, 18.0 h",71%
O=S(Cl)OCCCN(CCCO)Cc1ccccc1 (stereo not shown) [28 -> 29],"ring closure, isolated yield",[4]; 10-membered ring,86%
CN1CCOC(=O)c2ccccc2-c2ccccc21 [S63 -> 60],"ring closure, isolated yield","[5]; from CN(CCO)c1ccccc1-c1ccccc1C(=O)O, 9-membered ring, 24.0 h",72%
CC(Cc1cccc(-c2ccccc2CO)n1)N(C(=O)C(=O)Cl)c1ccccc1 (stereo not shown) [S127 -> 87],"ring closure, isolated yield","[3]; 12-membered ring, 3.0 h",71%
CN(C(=O)Cl)c1ccccc1-c1cccc(CCO)n1 [S124 -> 84],"ring closure, isolated yield","[2]; 10-membered ring, 18.0 h",59%
O=C1OCCCCCc2ccccc21 [14 -> 15 (control)],"ring closure, isolated yield","[5]; from O=C(O)c1ccccc1CCCCCO, 9-membered ring, 18.0 h",43%
CC(Cc1cccc(-c2ccccc2CC(=O)O)n1)Nc1ccccc1 (stereo not shown) [S77 -> 65 (quantitative)],"ring closure, isolated yield","[1]; 10-membered ring, 0.5 h",100%
O=C1OCCCSCc2c(Br)cccc21 [49c],"ring closure, isolated yield","[5]; from O=C(O)c1cccc(Br)c1CSCCCO, 9-membered ring",67%
O=C1OCCCSCc2c1cccc2[N+](=O)[O-] [50],"ring closure, isolated yield","[5]; from O=C(O)c1cccc([N+](=O)[O-])c1CSCCCO, 9-membered ring, 24.0 h",47%
CN1CCCC(=O)Oc2ccccc21 [S114 -> 81 (2 steps)],"ring closure, isolated yield","[5]; from CN(CCCC(=O)O)c1ccccc1O, 8-membered ring, 18.0 h",78%
CN1CCCOC(=O)c2ccccc2-c2ccccc21 [S67 -> 61],"ring closure, isolated yield","[5]; from CN(CCCO)c1ccccc1-c1ccccc1C(=O)O, 10-membered ring, 24.0 h",72%
O=C1OCCCSCc2ccc(F)cc21 [S30 -> 48],"ring closure, isolated yield","[5]; from O=C(O)c1cc(F)ccc1CSCCCO, 9-membered ring, 18.0 h",80%
CC(O)Cc1cccc(-c2ccccc2COS(=O)Cl)n1 (stereo not shown) [S129 -> 88],"ring closure, isolated yield",[4]; 11-membered ring,58%
C=CCNC(C)Cc1cccc(-c2ccccc2CC(=O)O)n1 (stereo not shown) [S74 -> 64 (2 steps)],"ring closure, isolated yield","[1]; 10-membered ring, 0.5 h",75%
CN(CCCO)c1ccccc1N(C)C(=O)C(=O)Cl [24 -> 25],"ring closure, isolated yield","[3]; 10-membered ring, 18.0 h",73%
O=C(Cl)N(CCc1cccc(CCNc2ccccc2)n1)c1ccccc1 [S140 -> 97],"ring closure, isolated yield","[2]; 10-membered ring, 18.0 h",49%
CCNCCCN(CC)Cc1ccccc1C(=O)O [S84-derived acid -> 68 (2 steps)],"ring closure, isolated yield",[1]; 9-membered ring,54%
O=S(Cl)OCCCCCCCO (stereo not shown) [30 -> 31 (control)],"ring closure, isolated yield",[4]; 10-membered ring,8%
CC1CCSCc2ccccc2C(=O)O1 (stereo not shown) [S43 -> 51],"ring closure, isolated yield","[5]; from CC(O)CCSCc1ccccc1C(=O)O, 9-membered ring, 16.0 h",71%
O=C1OCCCSCc2ccccc21 [12 -> 13],"ring closure, isolated yield","[5]; from O=C(O)c1ccccc1CSCCCO, 9-membered ring, 18.0 h",86%
O=C1c2ccccc2CN(Cc2ccccc2)CC2CCCCN12 (stereo not shown) [S108 -> 79],"ring closure, isolated yield","[5]; from O=C(O)c1ccccc1CN(Cc1ccccc1)CC1CCCCN1, 8-membered ring, 18.0 h",82%
CC1CCN(C)c2ccccc2-c2ccccc2C(=O)O1 (stereo not shown) [S71 -> 63],"ring closure, isolated yield","[5]; from CC(O)CCN(C)c1ccccc1-c1ccccc1C(=O)O, 10-membered ring, 24.0 h",78%
CN(C(=O)C(=O)Cl)c1ccccc1CCCCO [26 -> 27 (control)],"ring closure, isolated yield","[3]; 10-membered ring, 18.0 h",9%
O=S(Cl)OCCCN(CCCO)c1ccccc1 (stereo not shown) [S130 -> 89],"ring closure, isolated yield",[4]; 10-membered ring,40%
CC(O)Cc1cccc(-c2ccccc2CC(=O)O)c1 (stereo not shown) [10 -> 11 (control)],"ring closure, isolated yield",[1]; 10-membered ring,0%
CN(c1ccccc1-c1cccc(CCO)n1)S(=O)Cl (stereo not shown) [S124 -> 86],"ring closure, isolated yield",[4]; 10-membered ring,46%
CC1CN(C)c2ccccc2-c2ccccc2C(=O)O1 (stereo not shown) [S69 -> 62],"ring closure, isolated yield","[5]; from CC(O)CN(C)c1ccccc1-c1ccccc1C(=O)O, 9-membered ring, 24.0 h",81%
O=C(Cl)N(CCCCCCO)c1ccccc1 [18 -> 19 (control)],"ring closure, isolated yield",[2]; 9-membered ring,0%
O=C1OCCSCc2ccccc21 [47],"ring closure, isolated yield","[5]; from O=C(O)c1ccccc1CSCCO, 8-membered ring",88%
O=C(Cl)C(=O)N(CCc1cccc(CCNc2ccccc2)n1)c1ccccc1 [S140 -> 96],"ring closure, isolated yield","[3]; 11-membered ring, 0.5 h",51%
O=C1SCCCSCc2ccccc21 [S86 -> 69],"ring closure, isolated yield","[5]; from O=C(O)c1ccccc1CSCCCS, 9-membered ring, 16.0 h",65%
CC(O)Cc1cncc(-c2ccccc2CC(=O)O)n1 (stereo not shown) [S52 -> 55],"ring closure, isolated yield","[1]; 10-membered ring, 0.5 h",90%
CC(O)Cc1cccc(-c2ccccc2CC(=O)O)n1 (stereo not shown) [8 -> 9],"ring closure, isolated yield","[1]; 10-membered ring, 0.5 h",90%
O=C(Cl)N(CCCN(CCCO)c1ccccc1)c1ccccc1 [S138 -> 94],"ring closure, isolated yield","[2]; 10-membered ring, 18.0 h",78%
O=C(Cl)N(CCN(CCCO)c1ccccc1)c1ccccc1 [16 -> 17],"ring closure, isolated yield","[2]; 9-membered ring, 0.5 h",62%

# — publication PMC10910531
